Target: T1, PpGRXC5 (Physcomitrium patens, UniProt A0A2K1KTP0)
T1 construct: gene LOC112280307; targeting peptide removed, starts at Ala120 to native stop; Gateway vector pETG-10A, E. coli Rosetta2; tag not described; active site YCPYC
T1 sequence (A0A2K1KTP0 120-228): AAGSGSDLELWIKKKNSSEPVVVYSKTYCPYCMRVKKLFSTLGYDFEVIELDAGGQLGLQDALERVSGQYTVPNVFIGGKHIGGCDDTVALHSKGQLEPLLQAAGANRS
Assay: HED assay, GR-coupled NADPH oxidation at […] nm
Format: biochemical
Details: 0.3-1.5 mM HED varied, 1 mM GSH constant, 200 uM NADPH, yeast GR, 30 nM enzyme, 100 mM Tris-HCl, 1 mM EDTA, pH 7.9; actual substrate is the glutathione-mercaptoethanol mixed disulfide; read-out: Km^app

OCCSSCCO [HED, bis(2-hydroxyethyl)disulfide]
Km: 390 ± 110 µM

From PMC10808970, “Chloroplasts lacking class I glutaredoxins are functional but show a delayed recovery of protein cysteinyl redox state after oxidative challenge” (Redox Biology, 2023)
